In patent publication US5189169A (priority 1991, dated 1993):
“And” between values parts separate entries of the source, which are not always exact repeats. Identical values can stand only once.

Tests used:
[1] = test system: three grassy weeds (wild oat, watergrass, foxtail); set-up: species or system Avena fatua, Echinochloa crusgalli, Setaria viridis; settings: in vivo
[2] = test system: three broadleaf weeds (morning glory, mustard, velvetleaf); set-up: species or system Ipomoea purpurea, Brassica kaber, Abutilon theophrasti; settings: in vivo
[3] = test system: three grassy weeds (wild oat, watergrass, foxtail); set-up: species or system Avena fatua, Echinochloa crusgalli, Setaria viridis; settings: in vivo; remark: listed apart in the source
[4] = test system: yellow nutsedge; set-up: species or system Cyperus esculentus; settings: in vivo
[5] = test system: yellow nutsedge; set-up: species or system Cyperus esculentus; settings: in vivo; remark: listed apart in the source
[6] = test system: three broadleaf weeds (morning glory, mustard, velvetleaf); set-up: species or system Ipomoea purpurea, Brassica kaber, Abutilon theophrasti; settings: in vivo; remark: listed apart in the source
[7] = test system: four grassy weeds: wild oat, watergrass, green foxtail and crabgrass; experiment: Post-emergence herbicidal activity, grassy weeds (Table III); format: in vivo; settings: 2.24 kg/ha, 2-3 weeks after treatment
Protocol: (§1) The herbicidal effect was observed by comparing the extent of weed control in test flats treated with the compounds against that occurring in similar non-treated control flats. All were applied at 3.57 lb/A (4 kg/ha) to pre-emergence and post-emergence screening flats. An 80 gal/A (748.3 1/ha) spray volume was utilized. Post-emergence flats were seeded 12 days prior to treatment. Pre-emergence flats were seeded one day prior to treatment. Overhead watering of pre-emergence flats and soil surface watering of post-emergence flats, so as to avoid wetting the foliage, were carried out for the duration of the test.
(§2) Weed seeds were planted in a flat at a seed depth of 0.5 inch (1.3 cm). Soil for flats was prepared using loam soil fortified with 17-17-17 fertilizer (N-P2 O5 -K2 O on a weight basis) and Captan 80W fungicide. The test weeds were as follows:
(§3) The spray solutions were prepared by dissolving 240 mg of test compound in 20 ml of acetone containing 1% polyoxyethylene sorbitan monolaurate emulsifier, then adding 20 ml of water to the resulting solution. The spray solutions were applied using a linear spray table. Pre-emergence flats are raised to the level of the post-emergence foliage canopy by setting the flats on a wooden block.
(§4) The degree of weed control was visually assessed and recorded as percentage control compared to the growth of the same species in an untreated check flat of the same age. The rating scale ranges from 0 to 100%, where 0 equals no effect with plant growth equal to the untreated control, and 100 equals complete kill.
(§5) Compounds 68 to 145 in Table I were tested generally similarly to Compounds No. 1 to 67 with the following differences: The rate of application was 2 lb/acre (2.24 kg/ha), no 6-day evaluations were made, and the weeds were:
(§6) Four grassy weeds: wild oat, watergrass, green foxtail and crabgrass (Digitaria sanguinalis);
(§7) Ratings were taken 2-3 weeks after treatment.

[8] = test system: three broadleaf weeds: wild mustard, redroot pigweed and curly dock; experiment: Post-emergence herbicidal activity, broadleaf weeds (Table III); format: in vivo, Brassica kaber, Amaranthus retroflexus, Rumex crispus; settings: 2.24 kg/ha, 2-3 weeks after treatment
Protocol: as §1, §2, §3, §4, §5
(§8) Three broadleaf weeds: wild mustard, redroot pigweed (Amaranthus retroflexus) and curly dock (Rumex crispus).
as §7

[9] = test system: three broadleaf weeds: wild mustard, redroot pigweed and curly dock; experiment: Pre-emergence herbicidal activity, broadleaf weeds (Table III); format: in vivo, Brassica kaber, Amaranthus retroflexus, Rumex crispus; settings: 2.24 kg/ha, 2-3 weeks after treatment
Protocol: as §1, §2, §3, §4, §5, §8, §7

[10] = test system: four grassy weeds: wild oat, watergrass, green foxtail and crabgrass; experiment: Pre-emergence herbicidal activity, grassy weeds (Table III); format: in vivo; settings: 2.24 kg/ha, 2-3 weeks after treatment
Protocol: as §1, §2, §3, §4, §5, §6, §7

Structure (SMILES) | % Control, Post-emergence, GR avg. [1] | % Control, Pre-emergence, BL avg. [2] | % Control, Pre-emergence, GR avg. [3] | % Control, Pre-emergence, NS [4] | % Control, Post-emergence, NS [5] | % Control, Post-emergence, BL avg. [6] | % Control, Post-Emergence, GR Avg. [7] | % Control, Post-Emergence, BL Avg. [8] | % Control, Pre-Emergence, BL Avg. [9] | % Control, Pre-Emergence, GR Avg. [10]
CCCSP(=O)(N(CC)CC(C)C)N(CC)CC(C)C [Compound 49] | 80% and 47% | 0% | 0% | 0% | 0% | 100% |  |  |  | 
CCCN(CCC)P(=O)(Sc1ccc(Cl)c(Cl)c1)N(CCC)CCC [Compound 9] | 50% and 47% | 0% | 0% | 0% | 0% | 50% and 83% |  |  |  | 
CCCCCN(CCCCC)P(=O)(SCCC)N(C)c1ccccc1C (stereo not drawn) [Compound 15] | 50% and 47% | 0% | 0% | 0% | 5% and 0% | 80% and 60% |  |  |  | 
CCCSP(=O)(N(CCC)CCC)N(C)c1ccccc1F (stereo not drawn) [Compound 33] | 5% and 0% | 0% | 0% | 0% | 0% |  |  |  |  | 
CCCSP(=O)(N(CCC)CCC)N(C)c1ccc(F)c(F)c1 (stereo not drawn) [Compound 30] | 5% and 0% | 0% | 0% | 0% | 0% | 80% and 97% |  |  |  | 
CCCN(CCC)P(=O)(SC(C)(C)C)N(CCC)CCC [Compound 3] | 80% and 70% | 100% | 0% | 0% | 5% and 0% | 80% and 100% |  |  |  | 
CCCSP(=O)(N(CCC)CCC)N(C)c1ccc(F)cc1 (stereo not drawn) [Compound 32] | 10% and 3% | 0% | 0% | 0% | 0% |  |  |  |  | 
CCCSP(=O)(N(CCC)CCC)N(C)c1cccc(Cl)c1Cl (stereo not drawn) [Compound 35] | 20% and 33% | 0% | 0% | 0% | 0% | 20% and 33% |  |  |  | 
CCCSP(=O)(N(CCC)CCC)N(C)c1ccc(F)c(Cl)c1 (stereo not drawn) [Compound 31] | 10% and 5% | 0% | 0% | 0% | 0% |  |  |  |  | 
CCCCN(CCCC)P(=O)(SCC)N(CC)CC (stereo not drawn) [Compound 84] |  |  |  |  |  |  | 75% | 99% | 13% | 5%
CCCCN(CCCC)P(=O)(SC(C)C)N(C)C (stereo not drawn) [Compound 109] |  |  |  |  |  |  | 85% | 98% | 20% | 23%
C=CCSP(=O)(N(CC)CCCC)N(CCC)CCC (stereo not drawn) [Compound 115] |  |  |  |  |  |  | 70% | 86% | 0% | 0%
CCCN(CCC)P(=O)(SC(C)CC)N1CC(CC)CCC1C (stereo not drawn) [Compound 98] |  |  |  |  |  |  | 61% | 90% | 33% | 0%
CCCSP(=O)(N(CC)CC)N(C(C)C)C(C)C (stereo not drawn) [Compound 29] | 10% and 7% | 0% | 0% | 0% | 0% |  |  |  |  | 
CCCCN(CCCC)P(=O)(SC(C)CC)N(CC)CC (stereo not drawn) [Compound 102] |  |  |  |  |  |  | 70% | 99% | 40% | 30%
CCCCN(CCCC)P(=O)(SCC)N(CCC)CCC (stereo not drawn) [Compound 123] |  |  |  |  |  |  | 65% | 89% | 0% | 0%

Structure (SMILES) | % Control, Post-emergence, GR avg. [1] | % Control, Pre-emergence, BL avg. [2] | % Control, Pre-emergence, GR avg. [3] | % Control, Pre-emergence, NS [4] | % Control, Post-emergence, NS [5] | % Control, Post-emergence, BL avg. [6] | % Control, Post-Emergence, GR Avg. [7] | % Control, Post-Emergence, BL Avg. [8] | % Control, Pre-Emergence, BL Avg. [9] | % Control, Pre-Emergence, GR Avg. [10]
C=CCN(CC=C)P(=O)(SCC)N(CCC)CCC (stereo not drawn) [Compound 75] |  |  |  |  |  |  | 62% | 98% | 0% | 0%
CCCCSP(=O)(N(CCC)CCC)N(CCCC)CCCC (stereo not drawn) [Compound 126] |  |  |  |  |  |  | 61% | 86% | 0% | 0%
CCCCN(CCCC)P(=O)(SCCC)N(C(C)C)C(C)C (stereo not drawn) [Compound 28] | 10% and 7% | 0% | 0% | 0% | 0% |  |  |  |  | 
CCCCCSP(=O)(N(CCCC)CCCC)N(CCCC)CCCC [Compound 132] |  |  |  |  |  |  | 40% | 67% | 20% | 8%
CCCSP(=O)(N(CCC)CCC)N(C)c1ccccc1 (stereo not drawn) [Compound 27] | 20% and 40% | 0% | 0% | 0% | 0% and 5% |  |  |  |  | 
CCCCSP(=O)(N(CCCC)CCCC)N(CCCC)CCCC [Compound 83] |  |  |  |  |  |  | 82% | 99% | 7% | 5%
CCCN(CCC)P(=O)(SC(C)C)N1CC(CC)CCC1C (stereo not drawn) [Compound 97] |  |  |  |  |  |  | 67% | 86% | 20% | 0%
CCCN(CCC)P(=O)(Sc1ccccc1)N(CCC)CCC [Compound 78] |  |  |  |  |  |  | 50% | 98% | 0% | 0%
C=CCN(CC=C)P(=O)(SCCCC)N(CCC)CCC (stereo not drawn) [Compound 77] |  |  |  |  |  |  | 53% | 99% | 0% | 0%
CCCCCCSP(=O)(N(CCC)CCC)N(CCC)CCC [Compound 116] |  |  |  |  |  |  | 53% | 96% | 10% | 0%
CCCCN(CC)P(=O)(SC(C)C)N(CCC)CCC (stereo not drawn) [Compound 91] |  |  |  |  |  |  | 84% | 99% | 3% | 0%
CCCSP(=O)(N(CCC)CCC)N(C)c1cc(OC)cc(OC)c1 (stereo not drawn) [Compound 43] | 10% | 0% | 0% | 0% | 0% |  |  |  |  | 
CCCCN(CCCC)P(=O)(SC(C)(C)C)N(CCC)CCC (stereo not drawn) [Compound 128] |  |  |  |  |  |  | 38% | 80% | 0% | 0%
C=CCSP(=O)(N(CCC)CCC)N(CCC)CCC [Compound 99] |  |  |  |  |  |  | 58% | 99% | 37% | 22%
CCCN(CCC)P(=O)(SCC)N(CCC)CCC [Compound 70] |  |  |  |  |  |  | 82% | 99% | 10% | 5%
C=CCN(CC=C)P(=O)(SCCC)N(CCC)CCC (stereo not drawn) [Compound 76] |  |  |  |  |  |  | 61% | 99% | 0% | 0%
